“Also recorded” adds a separate entry of the source. Where two headings read alike, the source gives them in different places.
Columns and labels:
[1] = system: vessel injury-induced venous thrombosis; details: cited from earlier work; for activity in vessel injury-induced venous thrombosis model: aspirin, previous experiments
[2] = system: stasis-induced vena cava thrombosis; details: cited from earlier work
[3] = system: vessel injury-induced venous thrombosis; assay: FeCl2 vessel injury-induced vena cava thrombosis in rats; format: in vivo, rat
Experimental: Thrombosis Procedure. Male Sprague Dawley rats (350-450 g) were anesthetized with sodium pentobarbital (50 mg/kg i.p.). A jugular vein was cannulated for drug infusion or anesthetic supplementation, and the trachea was intubated to ensure airway patency. The vena cava was isolated by a midline abdominal incision and cleared of connective tissue. A fiberoptic probe (model P-433-10, 0.8 mm tip diameter) was placed on the dorsal surface of the vena cava distal to the renal veins and attached to a laser doppler blood perfusion monitor (model BPM 430-2, Vasamedics, St. Paul, Minn.). When baseline flow had stabilized, a 2 mm×5 mm strip of filter paper was saturated in 15% FeCl2 and placed on the vena cava downstream from the flow probe for 1 min. The vena cava was dissected free 60 min after filter paper application and opened lengthwise. The thrombus was removed to determine wet and dry thrombus weights on a Sartorius R-160P balance (Brinkmann Instruments Inc., Westbury, N.Y.). Blood flow was monitored on an R-611 physiological recorder (Sensor Medics, Anaheim, Calif.). Total blood flow was calculated by planimetry and normalized as percent of baseline flow (0 min=100%) over 60 min.
(§1) Drug treatments. There were 3 separate studies. In the first study rats were dosed once daily for 3 days with an oral gavage of either saline (n=6) or clopidogrel 3 (n=5), 10 (n=5), 20 (n=4) mg/kg). One hour after the last dose, rats were anethetized for the thrombosis protocol or blood was obtained for ex vivo testing of platelet function and whole blood coagulation. In the second study a continuous i.v. infusion of either saline or ifetroban (150 μg/kg/min) was administered starting 15 min before FeCl2-induced injury of the vena cava. In the third study, rats were treated with saline or clopidogrel (2 mg/kg per day for 3 days) and administered either saline or ifetroban (150 μg/kg/min) starting 15 min before FeCl2 application.

[4] = system: stasis-induced vena cava thrombosis; assay: Stasis-induced (uncomplicated) vena cava thrombosis; format: in vivo, rat
[5] = target: T1, rat platelet thromboxane A2 receptors (Rattus norvegicus, UniProt P34978); details: dose used (150 μg/kg/min); Schumacher et al. 1993; cited from earlier work
T1 construct: rat platelet thromboxane A2 receptors; host or cells: rat platelets (endogenous)
T1 sequence (P34978 1-341): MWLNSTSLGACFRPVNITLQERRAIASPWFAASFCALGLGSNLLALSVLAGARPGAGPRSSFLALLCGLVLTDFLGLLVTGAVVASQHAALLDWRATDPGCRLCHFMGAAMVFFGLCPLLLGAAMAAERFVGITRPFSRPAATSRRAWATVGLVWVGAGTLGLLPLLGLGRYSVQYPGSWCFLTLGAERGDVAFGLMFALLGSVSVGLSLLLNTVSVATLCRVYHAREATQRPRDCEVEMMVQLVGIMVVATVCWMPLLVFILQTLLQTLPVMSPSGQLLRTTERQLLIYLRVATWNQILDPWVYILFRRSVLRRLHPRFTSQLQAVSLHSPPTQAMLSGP

[6] = system: ADP-induced platelet aggregation; assay: animal or person
Experimental: (§2) Ex Vivo Platelet Function and Coagulation Testing. Male Sprague Dawley rats (350-450 g) were anesthetized with sodium pentobarbital (50 mg/kg i.p.) The vena cava was isolated by a midline abdominal incision and 5 to 8 ml of blood was withdrawn into a 1/10th volume of 3.8% Na citrate. A portion of each blood sample was centrifuged for 3 sec in a Microcentrifuge E (Beckman, Palo Alto, Calif., USA) to prepare platelet rich plasma (PRP) and for 3 min to prepare platelet poor plasma (PPP). The PRP was adjusted to a count of ˜450×10^3 platelets per […] by adding PPP.
Platelet aggregation responses of PRP to ADP (1,3 and 10 μM; Chrono-Log Corp., Havertown, Pa., USA) were determined using the photometric technique described for a model 540 aggregometer (Chrono-Log Corp.).
as §1

[7] = system: whole blood coagulation; details: clopidogrel orally once daily for 3 days
Experimental: as §2, §1

[8] = system: carotid artery thrombosis; details: clopidogrel 10 mg/kg

CC(=O)Oc1ccccc1C(=O)O [aspirin]
activity in vessel injury-induced venous thrombosis model [1]: failure; also recorded: failed to inhibit thrombosis
activity in vessel injury-induced venous thrombosis model ([1]; listed as Aspirin): inactive
activity in uncomplicated venous thrombosis model ([2]; aspirin): inactive

CCCCCNC(=O)c1coc(C2C3CCC(O3)C2Cc2ccccc2CCC(=O)O)n1 (stereo not drawn) [ifetroban, [1S-(1α,2α,3α,4α)]-2-[[3-[4-[(pentylamino)carbonyl]-2-oxazolyl]-7-oxabicyclo[2.2.1]hept-2-yl]methyl]benzenepropanoic acid]
effect on thrombus formation ([3]; ifetroban alone, 150 μg/kg/min i.v. infusion from 15 min before FeCl2): inactive; also recorded: no significant effect; also recorded: failure; also recorded: not effective
effect on thrombus formation ([3]; ifetroban alone, 150 μg/kg/min i.v. infusion from 15 min before FeCl2, listed as Ifetroban): failed to inhibit thrombosis
efficacy in uncomplicated venous thrombosis model ([4]; ifetroban alone): effective; also recorded: intermediate efficacy
block of rat platelet thromboxane A2 receptors [5]: ≥ 99%

COC(=O)[C@H](c1ccccc1Cl)N1CCc2sccc2C1 [clopidogrel, methyl (4)-(S)-α-(o-chlorophenyl)-6,7-dihydrothieno[3,2-c]pyridine-5-acetate]
effect on thrombus formation ([3]; clopidogrel 2 mg/kg per day for 3 days): not sufficient to inhibit thrombus formation; also recorded: no effect
decrease in thrombus weight ([3]; clopidogrel 3 mg/kg orally once daily for 3 days): 46%
antithrombotic activity ([3]; clopidogrel 10 mg/kg): good activity
decrease in thrombus weight ([3]; clopidogrel 10 mg/kg orally once daily for 3 days): 72%
decrease in thrombus weight ([3]; clopidogrel 20 mg/kg orally once daily for 3 days): 84%
inhibition at 20 mg/kg ([6]; Rattus norvegicus, Platelet, 72 h, read-out: inhibition of ADP-induced aggregation): 86%
inhibition at 10 mg/kg ([6]; Rattus norvegicus, Platelet, 72 h, read-out: inhibition of ex vivo platelet aggregation): 50%
platelet shape change response to ADP ([6]; clopidogrel 20 mg/kg daily for 3 days): unaffected
ex vivo whole blood coagulation tests [7]: unaffected
antithrombotic activity ([4]; clopidogrel 10 mg/kg): good activity
antithrombotic efficacy compared across the thrombosis models ([4]; dose-dependent comparison of three rat models): least effective
antithrombotic activity [8]: good activity

CC(=O)CC(c1ccccc1)c1c(O)c2ccccc2oc1=O (stereo not drawn) [warfarin]
INR ([1]; at higher dose needed for comparable inhibition of vessel injury-induced venous thrombosis): 9.5
PT ratio (INR) ([2]; at dose giving ≧75% inhibition of stasis-induced thrombosis): 2.2

Source: patent US6509348B1, “Combination of an ADP-receptor blocking antiplatelet drug and a thromboxane A2 receptor antagonist and a method for inhibiting thrombus formation employing such combination” (Bristol-Myers Squibb Company, priority 1998, dated 2003)
